Active and inactive are the calls of the source. No cut-off for these calls is given here.
Columns and labels:
[1] = molecular target: Insulin receptor-related protein (Homo sapiens) (UniProt P14616); experiment: Inhibition of DNA-tagged human INSRR assessed as percent of control at 50000 nM by qPCR analysis relative to control; parameters: scale not given: the % may be the effect or the level left
[2] = molecular target: Homeodomain-interacting protein kinase 1 (Homo sapiens) (UniProt Q86Z02); experiment: Inhibition of DNA-tagged human HIPK1 assessed as percent of control at 50000 nM by qPCR analysis relative to control; parameters: scale not given: the % may be the effect or the level left
[3] = molecular target: Fibroblast growth factor receptor 4 (Homo sapiens) (UniProt P22455); experiment: Inhibition of DNA-tagged human FGFR4 assessed as percent of control at 50000 nM by qPCR analysis relative to control; parameters: scale not given: the % may be the effect or the level left
[4] = molecular target: Mitogen-activated protein kinase 6 (Homo sapiens) (UniProt Q16659); experiment: Inhibition of DNA-tagged human ERK3 assessed as percent of control at 50000 nM by qPCR analysis relative to control; parameters: scale not given: the % may be the effect or the level left
[5] = molecular target: Ephrin type-B receptor 6 (Homo sapiens) (UniProt O15197); experiment: Inhibition of DNA-tagged human EPHB6 assessed as percent of control at 50000 nM by qPCR analysis relative to control; parameters: scale not given: the % may be the effect or the level left
[6] = test system: Epidermal growth factor receptor (Homo sapiens), P00533 [UNDEFINED MUTATION]; experiment: Inhibition of DNA-tagged human EGFR S752-1759del mutant assessed as percent of control at 50000 nM by qPCR analysis relative to control; parameters: scale not given: the % may be the effect or the level left
[7] = molecular target: Tyrosine-protein kinase CSK (Homo sapiens) (UniProt P41240); experiment: Inhibition of DNA-tagged human CSK assessed as percent of control at 50000 nM by qPCR analysis relative to control; parameters: scale not given: the % may be the effect or the level left
[8] = molecular target: Cyclin-dependent kinase-like 2 (Homo sapiens) (UniProt Q92772); experiment: Inhibition of DNA-tagged human CDKL2 assessed as percent of control at 50000 nM by qPCR analysis relative to control; parameters: scale not given: the % may be the effect or the level left
[9] = molecular target: Calcium/calmodulin-dependent protein kinase type II subunit alpha (Homo sapiens) (UniProt Q9UQM7); experiment: Inhibition of DNA-tagged human CAMK2A assessed as percent of control at 50000 nM by qPCR analysis relative to control; parameters: scale not given: the % may be the effect or the level left
[10] = molecular target: Calcium/calmodulin-dependent protein kinase type 1D (Homo sapiens) (UniProt Q8IU85); experiment: Inhibition of DNA-tagged human CAMK1D assessed as percent of control at 50000 nM by qPCR analysis relative to control; parameters: scale not given: the % may be the effect or the level left
[11] = molecular target: 5'-AMP-activated protein kinase catalytic subunit alpha-1 (Homo sapiens) (UniProt Q13131); experiment: Inhibition of DNA-tagged human AMPK-alpha1 assessed as percent of control at 50000 nM by qPCR analysis relative to control; parameters: scale not given: the % may be the effect or the level left
[12] = molecular target: Activin receptor type-2B (Homo sapiens) (UniProt Q13705); experiment: Inhibition of DNA-tagged human ACVR2B assessed as percent of control at 50000 nM by qPCR analysis relative to control; parameters: scale not given: the % may be the effect or the level left
[13] = test system: Tyrosine-protein kinase ABL1 (Homo sapiens), P00519 [E255K]; experiment: Inhibition of DNA-tagged phosphorylated human ABL1 E255K mutant assessed as percent of control at 50000 nM by qPCR analysis relative to control; parameters: scale not given: the % may be the effect or the level left
OCI-AML-3 = experiment: Cytotoxicity against human OCI-AML-3 cells at 0.1-100 uM assessed as decrease in cell viability relative to control; type: functional, cell-based
[14] = molecular target: Serine/threonine-protein kinase 10 (Homo sapiens) (UniProt O94804); experiment: Inhibition of DNA-tagged human LOK assessed as percent of control at 50000 nM by qPCR analysis relative to control; parameters: scale not given: the % may be the effect or the level left
[15] = test system: Leucine-rich repeat serine/threonine-protein kinase 2 (Homo sapiens), Q5S007 [G2019S]; experiment: Inhibition of DNA-tagged human LRRK2 G2019S mutant assessed as percent of control at 50000 nM by qPCR analysis relative to control; parameters: scale not given: the % may be the effect or the level left
[16] = molecular target: Mitogen-activated protein kinase kinase kinase kinase 2 (Homo sapiens) (UniProt Q12851); experiment: Inhibition of DNA-tagged human MAP4K2 assessed as percent of control at 50000 nM by qPCR analysis relative to control; parameters: scale not given: the % may be the effect or the level left
[17] = molecular target: Serine/threonine-protein kinase mTOR (Homo sapiens) (UniProt P42345); experiment: Inhibition of DNA-tagged human MTOR assessed as percent of control at 50000 nM by qPCR analysis relative to control; parameters: scale not given: the % may be the effect or the level left
[18] = molecular target: Serine/threonine-protein kinase 38-like (Homo sapiens) (UniProt Q9Y2H1); experiment: Inhibition of DNA-tagged human NDR2 assessed as percent of control at 50000 nM by qPCR analysis relative to control; parameters: scale not given: the % may be the effect or the level left
[19] = molecular target: Serine/threonine-protein kinase Nek5 (Homo sapiens) (UniProt Q6P3R8); experiment: Inhibition of DNA-tagged human NEK5 assessed as percent of control at 50000 nM by qPCR analysis relative to control; parameters: scale not given: the % may be the effect or the level left
[20] = molecular target: Serine/threonine-protein kinase NLK (Homo sapiens) (UniProt Q9UBE8); experiment: Inhibition of DNA-tagged human NLK assessed as percent of control at 50000 nM by qPCR analysis relative to control; parameters: scale not given: the % may be the effect or the level left
[21] = molecular target: Calcium-dependent protein kinase 1 (Plasmodium falciparum) (UniProt P62344); experiment: Inhibition of DNA-tagged Plasmodium falciparum CDPK1 assessed as percent of control at 50000 nM by qPCR analysis relative to control; parameters: scale not given: the % may be the effect or the level left
[22] = molecular target: Phosphorylase b kinase gamma catalytic chain, liver/testis isoform (Homo sapiens) (UniProt P15735); experiment: Inhibition of DNA-tagged human PHKG2 assessed as percent of control at 50000 nM by qPCR analysis relative to control; parameters: scale not given: the % may be the effect or the level left
[23] = molecular target: Serine/threonine-protein kinase N1 (Homo sapiens) (UniProt Q16512); experiment: Inhibition of DNA-tagged human PKN1 assessed as percent of control at 50000 nM by qPCR analysis relative to control; parameters: scale not given: the % may be the effect or the level left
[24] = molecular target: Serine/threonine-protein kinase PLK4 (Homo sapiens) (UniProt O00444); experiment: Inhibition of DNA-tagged human PLK4 assessed as percent of control at 50000 nM by qPCR analysis relative to control; parameters: scale not given: the % may be the effect or the level left
[25] = molecular target: Serine/threonine-protein kinase SIK3 (Homo sapiens) (UniProt Q9Y2K2); experiment: Inhibition of DNA-tagged human QSK assessed as percent of control at 50000 nM by qPCR analysis relative to control; parameters: scale not given: the % may be the effect or the level left
[26] = molecular target: Proto-oncogene tyrosine-protein kinase ROS (Homo sapiens) (UniProt P08922); experiment: Inhibition of DNA-tagged human ROS1 assessed as percent of control at 50000 nM by qPCR analysis relative to control; parameters: scale not given: the % may be the effect or the level left
[27] = molecular target: Proto-oncogene tyrosine-protein kinase Src (Homo sapiens) (UniProt P12931); experiment: Inhibition of DNA-tagged human SRC assessed as percent of control at 50000 nM by qPCR analysis relative to control; parameters: scale not given: the % may be the effect or the level left
[28] = molecular target: Wee1-like protein kinase (Homo sapiens) (UniProt P30291); experiment: Inhibition of DNA-tagged human WEE1 assessed as percent of control at 50000 nM by qPCR analysis relative to control; parameters: scale not given: the % may be the effect or the level left
[29] = molecular target: Wee1-like protein kinase 2 (Homo sapiens) (UniProt P0C1S8); experiment: Inhibition of DNA-tagged human WEE2 assessed as percent of control at 50000 nM by qPCR analysis relative to control; parameters: scale not given: the % may be the effect or the level left

Chain of Proto-oncogene tyrosine-protein kinase Src (Homo sapiens) (P12931 2-536 limits assumed): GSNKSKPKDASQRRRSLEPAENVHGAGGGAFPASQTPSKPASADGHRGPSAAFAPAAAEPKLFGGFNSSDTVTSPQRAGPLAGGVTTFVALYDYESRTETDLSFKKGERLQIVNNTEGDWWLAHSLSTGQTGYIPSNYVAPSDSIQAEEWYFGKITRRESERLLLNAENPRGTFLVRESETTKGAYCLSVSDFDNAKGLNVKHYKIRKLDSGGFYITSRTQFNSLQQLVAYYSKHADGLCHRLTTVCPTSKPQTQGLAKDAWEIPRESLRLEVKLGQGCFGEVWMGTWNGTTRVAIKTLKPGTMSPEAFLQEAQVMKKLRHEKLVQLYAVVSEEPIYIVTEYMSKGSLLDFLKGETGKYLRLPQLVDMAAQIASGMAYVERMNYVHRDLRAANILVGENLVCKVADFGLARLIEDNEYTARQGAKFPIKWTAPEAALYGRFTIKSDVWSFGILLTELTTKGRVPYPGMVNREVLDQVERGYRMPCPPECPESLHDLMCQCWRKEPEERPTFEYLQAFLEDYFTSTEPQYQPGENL
Chain of Calcium/calmodulin-dependent protein kinase type 1D (Homo sapiens) (Q8IU85 whole entry, looked up): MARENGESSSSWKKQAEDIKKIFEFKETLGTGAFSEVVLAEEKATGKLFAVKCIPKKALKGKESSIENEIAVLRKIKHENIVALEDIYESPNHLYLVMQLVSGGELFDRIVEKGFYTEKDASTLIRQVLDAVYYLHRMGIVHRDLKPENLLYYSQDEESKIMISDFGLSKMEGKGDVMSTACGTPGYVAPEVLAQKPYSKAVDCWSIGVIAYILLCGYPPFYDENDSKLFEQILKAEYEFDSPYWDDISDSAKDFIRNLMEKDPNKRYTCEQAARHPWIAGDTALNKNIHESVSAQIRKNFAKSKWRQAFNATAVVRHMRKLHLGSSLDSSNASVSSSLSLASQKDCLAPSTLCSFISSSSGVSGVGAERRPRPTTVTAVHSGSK
Chain of Serine/threonine-protein kinase 10 (Homo sapiens) (O94804 whole entry, looked up): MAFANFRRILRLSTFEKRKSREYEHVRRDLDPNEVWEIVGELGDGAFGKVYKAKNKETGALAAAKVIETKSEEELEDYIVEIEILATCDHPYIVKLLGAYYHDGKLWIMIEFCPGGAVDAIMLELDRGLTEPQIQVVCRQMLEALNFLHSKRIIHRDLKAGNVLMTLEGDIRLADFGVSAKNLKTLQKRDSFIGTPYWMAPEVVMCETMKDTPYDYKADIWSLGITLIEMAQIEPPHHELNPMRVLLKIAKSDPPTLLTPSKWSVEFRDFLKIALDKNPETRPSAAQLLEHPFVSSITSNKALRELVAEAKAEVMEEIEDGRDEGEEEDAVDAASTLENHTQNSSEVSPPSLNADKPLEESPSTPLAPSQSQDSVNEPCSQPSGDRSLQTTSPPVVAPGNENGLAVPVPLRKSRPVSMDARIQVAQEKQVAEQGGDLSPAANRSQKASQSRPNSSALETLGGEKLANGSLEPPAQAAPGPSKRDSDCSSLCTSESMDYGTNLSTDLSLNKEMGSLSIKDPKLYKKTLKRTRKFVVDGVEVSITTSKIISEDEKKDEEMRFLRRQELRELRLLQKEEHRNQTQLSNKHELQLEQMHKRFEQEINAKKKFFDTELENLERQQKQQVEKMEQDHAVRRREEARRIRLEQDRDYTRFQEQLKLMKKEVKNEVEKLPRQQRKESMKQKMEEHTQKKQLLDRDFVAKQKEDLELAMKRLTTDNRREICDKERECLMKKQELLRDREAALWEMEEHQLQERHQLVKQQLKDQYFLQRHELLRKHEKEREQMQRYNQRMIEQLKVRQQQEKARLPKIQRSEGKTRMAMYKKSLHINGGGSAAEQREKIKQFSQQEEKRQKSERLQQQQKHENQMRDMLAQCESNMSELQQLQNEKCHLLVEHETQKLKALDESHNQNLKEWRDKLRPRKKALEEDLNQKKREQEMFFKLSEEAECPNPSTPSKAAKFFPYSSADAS
Chain of Proto-oncogene tyrosine-protein kinase ROS (Homo sapiens) (P08922 whole entry): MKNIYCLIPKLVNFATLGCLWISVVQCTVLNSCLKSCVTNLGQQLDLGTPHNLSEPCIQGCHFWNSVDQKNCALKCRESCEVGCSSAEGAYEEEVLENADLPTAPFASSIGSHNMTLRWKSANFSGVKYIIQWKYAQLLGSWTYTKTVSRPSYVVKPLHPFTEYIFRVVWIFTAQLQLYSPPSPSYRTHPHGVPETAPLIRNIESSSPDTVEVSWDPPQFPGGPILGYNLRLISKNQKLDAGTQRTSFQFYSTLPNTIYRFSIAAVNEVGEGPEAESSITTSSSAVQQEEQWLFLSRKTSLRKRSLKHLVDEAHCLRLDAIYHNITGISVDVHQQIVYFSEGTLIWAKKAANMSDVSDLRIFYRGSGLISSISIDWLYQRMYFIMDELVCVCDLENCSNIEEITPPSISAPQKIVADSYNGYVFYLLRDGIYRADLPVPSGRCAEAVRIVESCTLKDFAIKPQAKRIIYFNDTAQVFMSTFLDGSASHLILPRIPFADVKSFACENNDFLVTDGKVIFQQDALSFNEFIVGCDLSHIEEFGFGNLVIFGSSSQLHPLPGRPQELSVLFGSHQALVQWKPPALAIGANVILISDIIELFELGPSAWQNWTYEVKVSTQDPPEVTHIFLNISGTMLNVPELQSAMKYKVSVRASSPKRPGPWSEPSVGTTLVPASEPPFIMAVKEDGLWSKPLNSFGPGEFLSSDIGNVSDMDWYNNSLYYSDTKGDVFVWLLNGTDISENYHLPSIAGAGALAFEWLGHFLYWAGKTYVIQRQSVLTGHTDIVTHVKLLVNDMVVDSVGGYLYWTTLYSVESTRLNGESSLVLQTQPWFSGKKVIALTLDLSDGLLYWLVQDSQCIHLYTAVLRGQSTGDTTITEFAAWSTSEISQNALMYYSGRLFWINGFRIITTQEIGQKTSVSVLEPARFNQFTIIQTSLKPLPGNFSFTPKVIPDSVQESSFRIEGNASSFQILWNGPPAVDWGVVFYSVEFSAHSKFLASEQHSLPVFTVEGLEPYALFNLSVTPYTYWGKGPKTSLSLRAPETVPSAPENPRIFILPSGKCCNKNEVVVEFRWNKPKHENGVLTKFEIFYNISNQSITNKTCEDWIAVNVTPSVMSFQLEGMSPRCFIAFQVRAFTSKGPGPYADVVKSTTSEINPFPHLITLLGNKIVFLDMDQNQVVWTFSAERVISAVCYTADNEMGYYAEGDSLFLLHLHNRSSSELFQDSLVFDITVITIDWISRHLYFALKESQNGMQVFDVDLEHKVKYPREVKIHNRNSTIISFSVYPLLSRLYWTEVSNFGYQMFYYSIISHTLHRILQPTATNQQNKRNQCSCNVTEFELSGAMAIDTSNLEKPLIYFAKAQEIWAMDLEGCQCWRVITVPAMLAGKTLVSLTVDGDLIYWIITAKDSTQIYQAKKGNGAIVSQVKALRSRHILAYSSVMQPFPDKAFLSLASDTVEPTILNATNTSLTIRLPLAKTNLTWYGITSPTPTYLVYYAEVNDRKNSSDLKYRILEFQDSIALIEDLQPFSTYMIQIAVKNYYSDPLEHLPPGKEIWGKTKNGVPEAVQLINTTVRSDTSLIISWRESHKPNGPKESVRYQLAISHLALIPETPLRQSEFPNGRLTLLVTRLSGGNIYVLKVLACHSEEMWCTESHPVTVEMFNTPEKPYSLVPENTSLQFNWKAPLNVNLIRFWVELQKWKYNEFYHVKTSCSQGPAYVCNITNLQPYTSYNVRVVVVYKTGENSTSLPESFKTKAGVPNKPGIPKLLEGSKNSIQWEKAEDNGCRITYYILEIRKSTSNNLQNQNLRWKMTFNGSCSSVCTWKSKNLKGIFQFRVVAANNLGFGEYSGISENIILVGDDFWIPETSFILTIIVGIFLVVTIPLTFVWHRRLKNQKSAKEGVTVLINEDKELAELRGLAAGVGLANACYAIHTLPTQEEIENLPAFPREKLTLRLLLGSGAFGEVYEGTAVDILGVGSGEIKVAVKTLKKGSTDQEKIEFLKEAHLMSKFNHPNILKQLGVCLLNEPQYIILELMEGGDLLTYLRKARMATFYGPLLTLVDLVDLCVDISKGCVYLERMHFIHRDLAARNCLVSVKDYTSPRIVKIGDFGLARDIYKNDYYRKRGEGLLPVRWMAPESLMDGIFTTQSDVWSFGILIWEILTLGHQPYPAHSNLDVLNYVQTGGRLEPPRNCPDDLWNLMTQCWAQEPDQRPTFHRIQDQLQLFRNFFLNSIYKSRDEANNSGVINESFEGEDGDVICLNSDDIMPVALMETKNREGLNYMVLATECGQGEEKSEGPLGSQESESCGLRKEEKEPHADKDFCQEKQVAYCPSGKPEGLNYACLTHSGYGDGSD
Chain of Serine/threonine-protein kinase Nek5 (Homo sapiens) (Q6P3R8 whole entry): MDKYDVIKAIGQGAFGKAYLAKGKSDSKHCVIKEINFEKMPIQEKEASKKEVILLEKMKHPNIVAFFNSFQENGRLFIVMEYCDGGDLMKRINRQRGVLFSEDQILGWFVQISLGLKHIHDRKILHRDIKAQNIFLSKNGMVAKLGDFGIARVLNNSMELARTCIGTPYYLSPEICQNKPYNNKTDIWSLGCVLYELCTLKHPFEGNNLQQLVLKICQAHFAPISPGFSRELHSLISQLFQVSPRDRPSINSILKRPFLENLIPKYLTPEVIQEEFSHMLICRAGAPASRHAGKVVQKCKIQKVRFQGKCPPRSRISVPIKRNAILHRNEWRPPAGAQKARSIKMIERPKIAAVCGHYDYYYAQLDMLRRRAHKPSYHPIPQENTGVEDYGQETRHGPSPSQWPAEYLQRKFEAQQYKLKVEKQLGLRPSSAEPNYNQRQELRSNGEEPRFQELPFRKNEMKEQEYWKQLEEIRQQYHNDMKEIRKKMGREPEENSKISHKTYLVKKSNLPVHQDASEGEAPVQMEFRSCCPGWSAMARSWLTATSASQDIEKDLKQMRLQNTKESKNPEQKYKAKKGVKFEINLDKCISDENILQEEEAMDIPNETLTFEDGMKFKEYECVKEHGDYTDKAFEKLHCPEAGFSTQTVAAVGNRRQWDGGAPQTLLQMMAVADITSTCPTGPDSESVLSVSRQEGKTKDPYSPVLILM

In the case of `CN1C(=O)/C(=C2/C(=O)Nc3ccccc32)c2ccccc21`, the Activity [1] is reported as 84%, the Activity [2] is reported as 83% and the Activity [3] is reported as 100%. For the same compound, the Activity [4] was 100%, the Activity [5] was 89% and the Activity [6] was 88%. It also gave an Activity [7] of 100%, an Activity [8] of 100% and an Activity [9] of 99%. It also gave an Activity [10] of 100%, an Activity [11] of 100% and an Activity [12] of 100%. For the same compound, the Activity [13] was 100%, the Activity (OCI-AML-3) was “Active” and the Activity [14] was 100%. The Activity [15] was 74%, the Activity [16] was 92% and the Activity [17] was 100%. For the same compound, the Activity [18] was 100%, the Activity [19] was 96% and the Activity [20] was 100%. The Activity [21] was 87%, the Activity [22] was 100% and the Activity [23] was 100%. For the same compound, the Activity [24] was 79%, the Activity [25] was 100% and the Activity [26] was 81%. It also gave an Activity [27] of 100%, an Activity [28] of 91% and an Activity [29] of 95%.

Reference: ChEMBL document CHEMBL4804284
